One compound from ChEMBL document CHEMBL3124829, “Discovery of SCH 900188: A Potent Hepatitis C Virus NS5B Polymerase Inhibitor Prodrug As a Development Candidate” (ACS Med Chem Lett, 2014) can be followed below.

Molecules are shown by their SMILES. The source made the active and inactive calls. The rule behind the calls is not given here.

Data set [1] relates to RNA-directed RNA polymerase (Hepacivirus hominis), O39930 [G554D]. The experiment in a line: Inhibition of HCV NS5B RdRp G554D mutant active site.
The species named for data set [2] is Rattus norvegicus. Description: Cmax in rat assessed as 4-Fluoro-6-((7-fluoro-4-oxo-3,4-dihydroquinazolin-6-yl)methyl)-8-(2-oxo-1,2-dihydropyridin-3-yl)-6H-furo[2,3-e]indole-7-carboxylic acid. The format is ADME, organism-based. The note with it: in vivo.
The species named for data set [3] is Rattus norvegicus. The experiment in a line: Ratio of drug level from liver to plasma in rat assessed as 4-Fluoro-6-((7-fluoro-4-oxo-3,4-dihydroquinazolin-6-yl)methyl)-8-(2-oxo-1,2-dihydropyridin-3-yl)-6H-furo[2,3-e]indole-7-carboxylic acid after 6 hrs. Particulars: other tissue.
Data set [4] concerns Canis familiaris. The experiment in a line: Oral bioavailability in dog assessed as 4-Fluoro-6-((7-fluoro-4-oxo-3,4-dihydroquinazolin-6-yl)methyl)-8-(2-oxo-1,2-dihydropyridin-3-yl)-6H-furo[2,3-e]indole-7-carboxylic acid. The format is ADME, organism-based, Canis lupus familiaris. The note with it: in vivo.
Data set [5] concerns Canis familiaris. Description: Half life in dog assessed as 4-Fluoro-6-((7-fluoro-4-oxo-3,4-dihydroquinazolin-6-yl)methyl)-8-(2-oxo-1,2-dihydropyridin-3-yl)-6H-furo[2,3-e]indole-7-carboxylic acid at 1 mg/kg, iv. The format is ADME, organism-based, Canis lupus familiaris. The arrangement: dose 1 mg/kg, route intravenous. The note with it: in vivo.
Data set [6] has as its system Rattus norvegicus. Description: AUC (0 to 24 hrs) in rat assessed as 4-Fluoro-6-((7-fluoro-4-oxo-3,4-dihydroquinazolin-6-yl)methyl)-8-(2-oxo-1,2-dihydropyridin-3-yl)-6H-furo[2,3-e]indole-7-carboxylic acid at 10 mg/kg, po. It is filed as ADME, organism-based, Plasma. The arrangement: time < 24 hr, dose 10 mg/kg, route oral. The note with it: in vivo.
Data set [7] relates to Rhesus monkey. Description: AUC (0 to 24 hrs) in monkey assessed as 4-Fluoro-6-((7-fluoro-4-oxo-3,4-dihydroquinazolin-6-yl)methyl)-8-(2-oxo-1,2-dihydropyridin-3-yl)-6H-furo[2,3-e]indole-7-carboxylic acid at 3 mg/kg, po. The format is ADME, organism-based, Macaca mulatta, Plasma. The arrangement: time < 24 hr, dose 3 mg/kg, route oral. Particulars: in vivo.
Data set [8] has as its system Rhesus monkey. The experiment in a line: Oral bioavailability in monkey assessed as 4-Fluoro-6-((7-fluoro-4-oxo-3,4-dihydroquinazolin-6-yl)methyl)-8-(2-oxo-1,2-dihydropyridin-3-yl)-6H-furo[2,3-e]indole-7-carboxylic acid. The format is ADME, organism-based, Macaca mulatta. The note with it: in vivo.
The subject of data set [9] is Rattus norvegicus. Description: Half life in rat assessed as 4-Fluoro-6-((7-fluoro-4-oxo-3,4-dihydroquinazolin-6-yl)methyl)-8-(2-oxo-1,2-dihydropyridin-3-yl)-6H-furo[2,3-e]indole-7-carboxylic acid at 3 mg/kg, iv. Details: dose 3 mg/kg, route intravenous. The note with it: in vivo. It is filed as ADME, organism-based.
Data set [10] deals with RNA-directed RNA polymerase (Hepacivirus hominis), O39930 [C316Y]. The experiment in a line: Inhibition of HCV NS5B RdRp C316Y mutant active site.
A short description of data set [11]: Inhibition of HCV genotype 1b C-terminal polyhistidine-tagged NS5B Cdelta21 RdRp expressed in Escherichia coli using DCoH75 as template assessed as incorporation of [33P]-CTP in polynucleotide sequence after 2 hrs by scintillation counting analysis. The arrangement: species or system Hepatitis C virus subtype 1b.
Data set [12] deals with Canis familiaris. Description: AUC (0 to 24 hrs) in dog assessed as 4-Fluoro-6-((7-fluoro-4-oxo-3,4-dihydroquinazolin-6-yl)methyl)-8-(2-oxo-1,2-dihydropyridin-3-yl)-6H-furo[2,3-e]indole-7-carboxylic acid at 3 mg/kg, po. The format is ADME, organism-based, Canis lupus familiaris, Plasma. Details: time < 24 hr, dose 3 mg/kg, route oral. The note with it: in vivo.
For data set [13], the system named is Rhesus monkey. The experiment in a line: Cmax in monkey assessed as 4-Fluoro-6-((7-fluoro-4-oxo-3,4-dihydroquinazolin-6-yl)methyl)-8-(2-oxo-1,2-dihydropyridin-3-yl)-6H-furo[2,3-e]indole-7-carboxylic acid. The format is ADME, organism-based, Macaca mulatta. The note with it: in vivo.
Data set [14] can be described thus: Mutagenic activity in micronucleus (unknown origin). It is filed as ADME.
Data set [15] concerns RNA-directed RNA polymerase (Hepacivirus hominis), O39930 [C316Y]. Description: Inhibition of HCV NS5B RdRp C316Y mutant palm allosteric site.
For a further data set, the system named is Hepatitis C virus. The experiment in a line: Antiviral activity against HCV infected in human hepatoma cells assessed as inhibition of viral RNA replication after 3 days by real time PCR analysis. Particulars: 72 h. The format is functional, organism-based, Hepacivirus hominis.
Data set [16] is described as follows: Solubility of the compound at pH 3. The note with it: buffer. It is filed as physicochemical.
In data set [17] the test system is RNA-directed RNA polymerase (Hepacivirus hominis), O39930 [M414T]. Description: Inhibition of HCV NS5B RdRp M414T mutant active site.
The species entered for data set [18] is Canis familiaris. Description: Cmax in dog assessed as 4-Fluoro-6-((7-fluoro-4-oxo-3,4-dihydroquinazolin-6-yl)methyl)-8-(2-oxo-1,2-dihydropyridin-3-yl)-6H-furo[2,3-e]indole-7-carboxylic acid. The note with it: in vivo. The format is ADME, organism-based, Canis lupus familiaris.
The test system of data set [19] is RNA-directed RNA polymerase (Hepacivirus hominis), O39930 [G554D]. The experiment in a line: Inhibition of HCV NS5B RdRp G554D mutant palm allosteric site.
The subject of data set [20] is RNA-directed RNA polymerase (Hepacivirus hominis), O39930 [M414T]. Description: Inhibition of HCV NS5B RdRp M414T mutant palm allosteric site.
In data set [21] the test system is Rattus norvegicus. The experiment in a line: Oral bioavailability in rat assessed as 4-Fluoro-6-((7-fluoro-4-oxo-3,4-dihydroquinazolin-6-yl)methyl)-8-(2-oxo-1,2-dihydropyridin-3-yl)-6H-furo[2,3-e]indole-7-carboxylic acid. The format is ADME, organism-based. Particulars: in vivo.
Data set [22] concerns Rhesus monkey. The experiment in a line: Half life in monkey assessed as 4-Fluoro-6-((7-fluoro-4-oxo-3,4-dihydroquinazolin-6-yl)methyl)-8-(2-oxo-1,2-dihydropyridin-3-yl)-6H-furo[2,3-e]indole-7-carboxylic acid at 1 mg/kg, iv. It is filed as ADME, organism-based, Macaca mulatta. The arrangement: dose 1 mg/kg, route intravenous. Particulars: in vivo.
For another data set, the system named is Salmonella typhimurium. Description: Mutagenic activity in Salmonella typhimurium by mini Ames test. It is filed as toxicity, organism-based. The note with it: salmonella enterica subsp. enterica serovar typhimurium.

Sequence of RNA-directed RNA polymerase (Hepacivirus hominis), O39930 [G554D] (O39930 entry or part of it G554D): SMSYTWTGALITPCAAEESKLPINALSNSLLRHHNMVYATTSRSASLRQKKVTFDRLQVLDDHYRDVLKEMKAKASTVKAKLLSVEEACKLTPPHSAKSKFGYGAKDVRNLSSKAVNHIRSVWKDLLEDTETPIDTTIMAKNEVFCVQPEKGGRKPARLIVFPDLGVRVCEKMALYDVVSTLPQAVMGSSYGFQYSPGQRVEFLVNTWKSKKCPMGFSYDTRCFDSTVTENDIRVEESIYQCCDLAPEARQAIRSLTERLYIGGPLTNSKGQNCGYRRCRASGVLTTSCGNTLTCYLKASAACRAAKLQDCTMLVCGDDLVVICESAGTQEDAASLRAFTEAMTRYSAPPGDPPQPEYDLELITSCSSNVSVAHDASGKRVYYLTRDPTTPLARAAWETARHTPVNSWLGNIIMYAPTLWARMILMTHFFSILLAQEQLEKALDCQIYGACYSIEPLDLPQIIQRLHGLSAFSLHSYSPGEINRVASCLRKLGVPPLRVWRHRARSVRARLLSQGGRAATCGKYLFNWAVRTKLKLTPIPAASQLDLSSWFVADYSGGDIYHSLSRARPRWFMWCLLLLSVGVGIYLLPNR
Sequence of RNA-directed RNA polymerase (Hepacivirus hominis), O39930 [M414T] (O39930 entry or part of it M414T): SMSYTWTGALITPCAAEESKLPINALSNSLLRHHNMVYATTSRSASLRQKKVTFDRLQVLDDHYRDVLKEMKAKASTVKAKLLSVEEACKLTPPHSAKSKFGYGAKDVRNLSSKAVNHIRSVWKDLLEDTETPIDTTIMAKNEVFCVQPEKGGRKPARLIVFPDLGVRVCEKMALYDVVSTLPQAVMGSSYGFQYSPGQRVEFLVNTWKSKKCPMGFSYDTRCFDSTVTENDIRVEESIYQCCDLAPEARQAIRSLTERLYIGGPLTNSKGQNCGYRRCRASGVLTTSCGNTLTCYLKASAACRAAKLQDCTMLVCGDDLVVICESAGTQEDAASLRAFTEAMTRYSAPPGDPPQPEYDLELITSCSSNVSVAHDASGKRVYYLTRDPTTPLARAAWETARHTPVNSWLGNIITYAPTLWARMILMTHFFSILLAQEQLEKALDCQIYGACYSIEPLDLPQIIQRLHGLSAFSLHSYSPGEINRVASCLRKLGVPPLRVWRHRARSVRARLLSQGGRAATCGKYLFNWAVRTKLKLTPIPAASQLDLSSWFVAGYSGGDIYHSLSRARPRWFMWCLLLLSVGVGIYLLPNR
Sequence of RNA-directed RNA polymerase (Hepacivirus hominis), O39930 [C316Y] (O39930 entry or part of it C316Y): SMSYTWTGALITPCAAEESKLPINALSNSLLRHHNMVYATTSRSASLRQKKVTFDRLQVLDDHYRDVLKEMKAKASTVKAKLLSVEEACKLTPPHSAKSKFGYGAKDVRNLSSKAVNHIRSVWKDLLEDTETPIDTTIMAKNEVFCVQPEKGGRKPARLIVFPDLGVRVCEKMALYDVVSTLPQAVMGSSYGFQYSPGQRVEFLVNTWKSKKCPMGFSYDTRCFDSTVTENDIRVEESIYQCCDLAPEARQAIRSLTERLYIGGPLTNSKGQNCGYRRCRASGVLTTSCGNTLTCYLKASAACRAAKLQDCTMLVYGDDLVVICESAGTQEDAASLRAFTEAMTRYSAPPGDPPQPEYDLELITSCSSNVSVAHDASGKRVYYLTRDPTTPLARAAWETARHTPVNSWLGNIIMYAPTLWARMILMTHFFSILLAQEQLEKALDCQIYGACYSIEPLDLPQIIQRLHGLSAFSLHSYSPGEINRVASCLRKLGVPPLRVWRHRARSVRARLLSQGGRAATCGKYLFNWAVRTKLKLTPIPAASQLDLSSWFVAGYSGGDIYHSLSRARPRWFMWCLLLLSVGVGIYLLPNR

In the case of `CN(C)CCOC(=O)c1c(-c2ccc[nH]c2=O)c2c3occc3c(F)cc2n1Cc1cc2c(=O)[nH]cnc2cc1F.Cl`, the inhibition entry in data set [1], in [10] and in data set [17] was “Active” throughout. Besides, the peak concentration (Cmax) (as a rule, the maximum level reached in the sampled fluid or tissue) turned out to be 2100 nM in the data set listed under Rattus norvegicus [2], 4100 nM in the data set on Rhesus monkey [13] and 800 nM in the data set filed under Canis familiaris [18]. Further, the Ratio in the data set listed under Rattus norvegicus [3] was 0.5. The F with Canis familiaris [4] was determined as 29%; in the data set with Rhesus monkey [8], 63%; in the data set with Rattus norvegicus [21] it was 2%. Besides, the t1/2 was found to be 4 h with Canis familiaris [5], 11 h in the data set with Rattus norvegicus [9] and 22 h in the data set with Rhesus monkey [22]. Moreover, the AUC (as a rule, the area under the concentration-time curve, a measure of exposure) was found to be 22 µM·h with Rattus norvegicus [6], 144 µM·h with Rhesus monkey [7] and 2.4 µM·h in the data set on Canis familiaris [12]. Besides, the half-inhibitory concentration (IC50) (commonly the concentration that inhibits the measured activity by half) in data set [11] was found to be 150 nM. In addition, the Activity entry (in data set [14]; in the data set on Salmonella typhimurium) was “Non-toxic” throughout. Moreover, the inhibition result in data set [15], in data set [19] and in [20] was “inactive” in each case. In addition, in the data set with Hepatitis C virus, the EC50 (in general, the concentration needed to bring the measured effect to its halfway point) was 5 nM. Moreover, the solubility (in general, how much of the substance goes into solution per volume) in [16] turned out to be 900 µM.
